# Data from patent US20250263370A1 (Tay Therapeutics Limited, priority 2022, published 2025).
# Values joined by “and” are separate entries in the source; they are usually repeats but may differ in a detail not shown here. Equal values may be shown once.
# Tested on: collagen-induced arthritis
# Test: Collagen-induced arthritis (CIA) model in rats: body weight, paw volume, clinical scores, clinical observations; for Average detailed clinical score, left hind limb: key of the grades not given here; for Average detailed clinical score, right hind limb: key of the grades not given here; for Detailed Clinical Scores: left forelimb: key of the grades not given here; for Detailed Clinical Scores: left hind limb: key of the grades not given here; for Detailed Clinical Scores: right forelimb: key of the grades not given here; for Detailed Clinical Scores: right hind limb: key of the grades not given here; for Detailed Clinical Scores: score: key of the grades not given here; for Mean overall clinical score ± SD: key of the grades not given here; for overall clinical score: key of the grades not given here
# Conditions: for Average detailed clinical score, left hind limb / Average detailed clinical score, right forelimb / Average detailed clinical score, right hind limb / Average detailed clinical score, score / Mean overall clinical score ± SD / Overall clinical score / Average detailed clinical score, left forelimb / Detailed Clinical Scores: left forelimb / Detailed Clinical Scores: left hind limb / Detailed Clinical Scores: right forelimb / Detailed Clinical Scores: right hind limb / Detailed Clinical Scores: score: CIA rats; for Overall clinical score: individual animals #1-8; for Mean animal paw volume ± SD: group mean; for Animal paw volume percent change: individual animals; for Detailed Clinical Scores: left forelimb / Detailed Clinical Scores: left hind limb / Detailed Clinical Scores: right forelimb / Detailed Clinical Scores: right hind limb / Detailed Clinical Scores: score: individual animals ID 1-8
# Procedure: Prior to be randomly placed in treatment groups, animals were weighed, and paw volume was measured. Once randomly assigned to treatment groups, on Day 0, animals in groups 2-9 were immunized by subcutaneous injection at the base of the tail.
# The immunization comprised 100 μL of the CFA+Collagen emulsion (prepared according to the method in Experimental Method A). Animals in group one received no immunization. Seven days after the first injection, animals in groups 2-9 received a booster immunization comprising 200 μL of the IFA+Collagen emulsion (prepared according to the method in Experimental Method A).
# Starting on Day 0, animals in group 1 and 2 were administered daily doses of the vehicle per os (P.O.) for 21 days. […] The twice daily doses for animals in groups 4-9 were 8 hours apart (e.g., the first dose at 8:00 AM and the second dose at 4:00 PM).
# Body weight of all animals was recorded daily for the 21-day period. Blind clinical scores on all four limbs were conducted for all animals in the study. Animals were assessed prior to receiving their first dose of the compound or control, and scores for each limb were combined to a total daily score for each animal. Clinical score assessments were performed on Day 0, 6, 12, 13, 14, 15, 18, 19, and 21 (for a total of 9 daily scores).
# Paw volume was recorded for each animal on Day 0, 6, 12, 13, 14, 15, 18, 19, and 21 (for a total of 9 measurements). To measure paw volume, animals were gently held with one hand while the hind paw was placed into a plethysmometer with the other hand. Lipid displacement by the paw was recorded and used to represent paw volume.
# All data measured and recorded was analyzed using SPSS 16.0 software. Groups were compared using one-way ANOVA and significance was set at p<0.05.
smiles,measurement,setting,value
"CNC(=O)c1[nH]c(C(=O)NC2CCC2)cc1O[C@@H](C)c1ccccc1 (stereo in doubt) [Example 101, N^5-cyclobutyl-N^2-methyl-3-(1-phenylethoxy)-1H-pyrrole-2,5-dicarboxamide]","Average detailed clinical score, left hind limb","Day 15, 3 mg/kg",2.00
same,"Average detailed clinical score, right forelimb","Day 15, 3 mg/kg",0.25
same,"Average detailed clinical score, right hind limb","Day 15, 3 mg/kg",2.13
same,"Average detailed clinical score, score","Day 15, 3 mg/kg",4.38
same,Mean overall clinical score ± SD,"Day 15, 3 mg/kg",4 ± 2
same,Overall clinical score,"Day 15, 3 mg/kg",2 and 3 (3×) and 6 (2×) and 8 and 4
same,"Average detailed clinical score, left forelimb","Day 15, 10 mg/kg",0.00
same,"Average detailed clinical score, left hind limb","Day 15, 10 mg/kg",1.75
same,"Average detailed clinical score, right forelimb","Day 15, 10 mg/kg",0.00
same,"Average detailed clinical score, right hind limb","Day 15, 10 mg/kg",1.50
same,"Average detailed clinical score, score","Day 15, 10 mg/kg",3.25
same,Mean overall clinical score ± SD,"Day 15, 10 mg/kg",3 ± 3
same,Overall clinical score,"Day 15, 10 mg/kg",5 and 4 and 7
same,"Average detailed clinical score, left forelimb","Day 15, 30 mg/kg",0.00
same,"Average detailed clinical score, left hind limb","Day 15, 30 mg/kg",0.38
same,"Average detailed clinical score, right forelimb","Day 15, 30 mg/kg",0.00
same,"Average detailed clinical score, right hind limb","Day 15, 30 mg/kg",0.50
same,"Average detailed clinical score, score","Day 15, 30 mg/kg",0.88
same,Mean overall clinical score ± SD,"Day 15, 30 mg/kg",1 ± 1
same,Mean animal paw volume ± SD,"Day 18, L paw, 3 mg/kg",2.49 mL
same,Animal paw volume percent change,"Day 18, L paw, 3 mg/kg",83.52% and 101.14% and 98.86% and 81.04% and 106.51% and 80.59% and 82.40%
same,Mean animal paw volume ± SD,"Day 18, L paw, 10 mg/kg",2.08 mL
same,Animal paw volume percent change,"Day 18, L paw, 10 mg/kg",72.92% and 61.90% and 97.28% and 109.73% and 15.71% and 76.54%
same,Mean animal paw volume ± SD,"Day 18, L paw, 30 mg/kg",1.70 mL
same,Mean animal paw volume ± SD,"Day 18, R paw, 3 mg/kg",2.53 mL
same,Animal paw volume percent change,"Day 18, R paw, 3 mg/kg",67.68% and 91.39% and 100.38% and 76.49% and 106.51% and 89.22% and 86.89%
same,Mean animal paw volume ± SD,"Day 18, R paw, 10 mg/kg",2.02 mL
same,Animal paw volume percent change,"Day 18, R paw, 10 mg/kg",58.36% and 65.34% and 94.21% and 111.20% and 22.39% and 46.36%
same,Mean animal paw volume ± SD,"Day 18, R paw, 30 mg/kg",1.63 mL
same,Detailed Clinical Scores: left forelimb,"Day 18, 3 mg/kg",0
same,Detailed Clinical Scores: left hind limb,"Day 18, 3 mg/kg",3 and 4
same,Detailed Clinical Scores: right forelimb,"Day 18, 3 mg/kg",0
same,Detailed Clinical Scores: right hind limb,"Day 18, 3 mg/kg",4 and 3
same,Detailed Clinical Scores: score,"Day 18, 3 mg/kg",7
same,"Average detailed clinical score, left forelimb","Day 18, 3 mg/kg",0.50
same,"Average detailed clinical score, left hind limb","Day 18, 3 mg/kg",3.88
same,"Average detailed clinical score, right forelimb","Day 18, 3 mg/kg",0.50
same,"Average detailed clinical score, right hind limb","Day 18, 3 mg/kg",3.88
same,"Average detailed clinical score, score","Day 18, 3 mg/kg",8.75
same,Mean overall clinical score ± SD,"Day 18, 3 mg/kg",9 ± 2
same,Overall clinical score,"Day 18, 3 mg/kg",7 (2×) and 8 (4×) and 12 (2×)
same,"Average detailed clinical score, left forelimb","Day 18, 10 mg/kg",0.00
same,"Average detailed clinical score, left hind limb","Day 18, 10 mg/kg",2.50
same,"Average detailed clinical score, right forelimb","Day 18, 10 mg/kg",0.88
same,"Average detailed clinical score, right hind limb","Day 18, 10 mg/kg",2.25
same,"Average detailed clinical score, score","Day 18, 10 mg/kg",5.63
same,Mean overall clinical score ± SD,"Day 18, 10 mg/kg",6 ± 4
same,Overall clinical score,"Day 18, 10 mg/kg",7 and 6 and 12
same,"Average detailed clinical score, left forelimb","Day 18, 30 mg/kg",0.00
same,"Average detailed clinical score, left hind limb","Day 18, 30 mg/kg",1.13
same,"Average detailed clinical score, right forelimb","Day 18, 30 mg/kg",0.00
same,"Average detailed clinical score, right hind limb","Day 18, 30 mg/kg",0.88
same,"Average detailed clinical score, score","Day 18, 30 mg/kg",2.00
same,Mean overall clinical score ± SD,"Day 18, 30 mg/kg",2 ± 2
same,Mean animal paw volume ± SD,"Day 19, L paw, 3 mg/kg",2.64 mL
same,Animal paw volume percent change,"Day 19, L paw, 3 mg/kg",91.95% and 116.35% and 108.75% and 85.50% and 107.28% and 90.11% and 81.65%
same,Mean animal paw volume ± SD,"Day 19, L paw, 10 mg/kg",2.07 mL
same,Animal paw volume percent change,"Day 19, L paw, 10 mg/kg",71.48% and 61.51% and 93.39% and 105.45% and 13.03%
same,Mean animal paw volume ± SD,"Day 19, L paw, 30 mg/kg",1.76 mL
same,Mean animal paw volume ± SD,"Day 19, R paw, 3 mg/kg",2.60 mL
same,Animal paw volume percent change,"Day 19, R paw, 3 mg/kg",67.68% and 117.60% and 98.86% and 76.49% and 104.98% and 107.81% and 86.14%
same,Mean animal paw volume ± SD,"Day 19, R paw, 10 mg/kg",2.02 mL
same,Animal paw volume percent change,"Day 19, R paw, 10 mg/kg",67.62% and 63.35% and 90.35% and 108.88% and 21.62%
same,Mean animal paw volume ± SD,"Day 19, R paw, 30 mg/kg",1.74 mL
same,Detailed Clinical Scores: left forelimb,"Day 19, 3 mg/kg",1 and 0
same,Detailed Clinical Scores: left hind limb,"Day 19, 3 mg/kg",4
same,Detailed Clinical Scores: right forelimb,"Day 19, 3 mg/kg",0
same,Detailed Clinical Scores: right hind limb,"Day 19, 3 mg/kg",4 and 3
same,Detailed Clinical Scores: score,"Day 19, 3 mg/kg",9 and 7
same,"Average detailed clinical score, left forelimb","Day 19, 3 mg/kg",1.13
same,"Average detailed clinical score, left hind limb","Day 19, 3 mg/kg",4.00
same,"Average detailed clinical score, right forelimb","Day 19, 3 mg/kg",1.00
same,"Average detailed clinical score, right hind limb","Day 19, 3 mg/kg",3.75
same,"Average detailed clinical score, score","Day 19, 3 mg/kg",9.88
same,Mean overall clinical score ± SD,"Day 19, 3 mg/kg",10 ± 3
same,Overall clinical score,"Day 19, 3 mg/kg",9 and 7 (2×) and 8 (2×) and 16 and 12 (2×)
same,"Average detailed clinical score, left forelimb","Day 19, 10 mg/kg",0.00
same,"Average detailed clinical score, left hind limb","Day 19, 10 mg/kg",2.38
same,"Average detailed clinical score, right forelimb","Day 19, 10 mg/kg",1.13
same,"Average detailed clinical score, right hind limb","Day 19, 10 mg/kg",2.88
same,"Average detailed clinical score, score","Day 19, 10 mg/kg",6.38
same,Mean overall clinical score ± SD,"Day 19, 10 mg/kg",6 ± 4
same,Overall clinical score,"Day 19, 10 mg/kg",7 and 6 and 12
same,"Average detailed clinical score, left forelimb","Day 19, 30 mg/kg",0.00
same,"Average detailed clinical score, left hind limb","Day 19, 30 mg/kg",1.63
same,"Average detailed clinical score, right forelimb","Day 19, 30 mg/kg",0.25
same,"Average detailed clinical score, right hind limb","Day 19, 30 mg/kg",1.75
same,"Average detailed clinical score, score","Day 19, 30 mg/kg",3.63
same,Mean overall clinical score ± SD,"Day 19, 30 mg/kg",4 ± 3
same,Mean animal paw volume ± SD,"Day 21, L paw, 3 mg/kg",2.67 mL
same,Animal paw volume percent change,"Day 21, L paw, 3 mg/kg",90.42% and 128.52% and 109.51% and 86.25% and 104.98% and 93.04% and 80.15%
same,Mean animal paw volume ± SD,"Day 21, L paw, 10 mg/kg",2.09 mL
same,Animal paw volume percent change,"Day 21, L paw, 10 mg/kg",71.48% and 60.71% and 92.61% and 105.06% and 13.03%
same,Mean animal paw volume ± SD,"Day 21, L paw, 30 mg/kg",1.82 mL
same,Mean animal paw volume ± SD,"Day 21, R paw, 3 mg/kg",2.59 mL
same,Animal paw volume percent change,"Day 21, R paw, 3 mg/kg",69.20% and 117.60% and 97.35% and 74.25% and 106.13% and 105.58% and 84.64%
same,Mean animal paw volume ± SD,"Day 21, R paw, 10 mg/kg",2.08 mL
same,Animal paw volume percent change,"Day 21, R paw, 10 mg/kg",66.90% and 62.15% and 89.58% and 106.95% and 21.62%
same,Mean animal paw volume ± SD,"Day 21, R paw, 30 mg/kg",1.79 mL
same,"Average detailed clinical score, left forelimb","Day 21, 3 mg/kg",1.00
same,"Average detailed clinical score, left hind limb","Day 21, 3 mg/kg",4.00
same,"Average detailed clinical score, right forelimb","Day 21, 3 mg/kg",1.00
same,"Average detailed clinical score, right hind limb","Day 21, 3 mg/kg",3.75
same,"Average detailed clinical score, score","Day 21, 3 mg/kg",9.75
same,Mean overall clinical score ± SD,"Day 21, 3 mg/kg",10 ± 3
same,Overall clinical score,"Day 21, 3 mg/kg",9 and 7 (2×) and 8 (2×) and 14 and 13 and 12
same,"Average detailed clinical score, left forelimb","Day 21, 10 mg/kg",0.00
same,"Average detailed clinical score, left hind limb","Day 21, 10 mg/kg",2.50
same,"Average detailed clinical score, right forelimb","Day 21, 10 mg/kg",1.25
same,"Average detailed clinical score, right hind limb","Day 21, 10 mg/kg",2.75
same,"Average detailed clinical score, score","Day 21, 10 mg/kg",6.50
same,Mean overall clinical score ± SD,"Day 21, 10 mg/kg",7 ± 4
same,Overall clinical score,"Day 21, 10 mg/kg",7 and 6 and 12 (2×)
same,"Average detailed clinical score, left forelimb","Day 21, 30 mg/kg",0.00
same,"Average detailed clinical score, left hind limb","Day 21, 30 mg/kg",1.88
same,"Average detailed clinical score, right forelimb","Day 21, 30 mg/kg",0.13
same,"Average detailed clinical score, right hind limb","Day 21, 30 mg/kg",1.63
same,"Average detailed clinical score, score","Day 21, 30 mg/kg",3.63
same,Mean overall clinical score ± SD,"Day 21, 30 mg/kg",4 ± 3
